Assay results published in article PMC4684479 (Molecular imaging and biology : MIB : the official …, 2016).

Columns and labels:
bovine serum albumin = bovine serum albumin (Bos taurus, UniProt P02769); assay: Serum protein binding by gel filtration chromatography; format: in vitro ADME; settings: GFC after incubation in bovine serum albumin solution at 37°C for 4 h
[1] = parameters: species or system Sprague-Dawley rat; settings: rat, in vivo, iv
[2] = in serum; cited from earlier work
[3] = conventional NIR fluorophores; cited from earlier work
[4] = Stability in warm serum, 24 h, 37°C; format: in vitro ADME; settings: 100% serum, pH 7.4, 24 h
[5] = Optical properties of NIR fluorophores in 100% serum, pH 7.4; format: physicochemical

Chain of bovine serum albumin (P02769 25-607): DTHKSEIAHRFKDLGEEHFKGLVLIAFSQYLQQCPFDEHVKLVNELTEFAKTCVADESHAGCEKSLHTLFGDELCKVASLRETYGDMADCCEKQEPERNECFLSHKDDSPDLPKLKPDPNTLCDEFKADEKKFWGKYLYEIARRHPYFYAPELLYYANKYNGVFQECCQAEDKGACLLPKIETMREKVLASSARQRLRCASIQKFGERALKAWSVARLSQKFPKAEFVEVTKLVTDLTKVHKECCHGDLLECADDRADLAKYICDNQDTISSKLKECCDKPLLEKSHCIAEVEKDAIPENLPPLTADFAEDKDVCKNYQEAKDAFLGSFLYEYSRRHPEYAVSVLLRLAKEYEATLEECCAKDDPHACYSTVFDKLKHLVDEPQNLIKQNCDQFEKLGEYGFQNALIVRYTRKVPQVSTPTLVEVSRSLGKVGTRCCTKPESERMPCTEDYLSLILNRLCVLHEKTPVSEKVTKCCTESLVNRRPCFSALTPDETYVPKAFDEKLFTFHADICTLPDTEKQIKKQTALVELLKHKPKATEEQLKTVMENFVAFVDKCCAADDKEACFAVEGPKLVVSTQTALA

## CC1(C)C(/C=C/C=C/C=C/C=C2\N(CCCCS(=O)(=O)[O-])c3ccc4ccccc4c3C2(C)C)=[N+](CCCCS(=O)(=O)[O-])c2ccc3ccccc3c21.[Na+] [ICG]
Bovine serum albumin
  Serum protein binding: significant serum protein binding
[1]
  clearance route seen by dual-channel imaging: extracted from blood by the liver and excreted into bile
[2]
  molar extinction coefficient (ε): 121,000 M^−1cm^−1
  quantum yield (QY): 9.3%

## CC1(C)C(=CC=C2CCCC(C=CC3=[N+](CCCCCC(=O)[O-])c4ccc(S(=O)(=O)[O-])cc4C3(C)C)=C2Oc2ccc(S(=O)(=O)[O-])cc2)N(CCCCS(=O)(=O)[O-])c2ccc(S(=O)(=O)[O-])cc21.[Na+].[Na+].[Na+].[Na+] [IRDye 800CW]
[3]
  LogD at pH 7.4: 2.51

## CN(C)c1ccc2nc3ccc(=[N+](C)C)cc-3sc2c1 [Methylene Blue]
[4]
  Stability (%) at 24 h, 37°C: 99%
[5]
  Absorbance Maximum: 665 nm
  Emission Maximum: 685 nm
  Extinction Coefficient: 71,200 M^−1cm^−1
  Quantum Yield: 3.8%
  Stokes Shift: 20 nm

## CC1(C)C(/C=C/C(=C/C=C2/N(CCC[N+](C)(C)C)c3ccc(S(=O)(=O)[O-])cc3C2(C)C)c2ccc(CCC(=O)[O-])cc2)=[N+](CCC[N+](C)(C)C)c2ccc(S(=O)(=O)[O-])cc21 [ZW700-1c]
[4]
  Stability (%) at 24 h, 37°C: 99%
[5]
  Absorbance Maximum: 646 nm
  Emission Maximum: 663 nm
  Extinction Coefficient: 199,000 M^−1cm^−1
  Quantum Yield: 19.5%
  Stokes Shift: 17 nm
